The values that follow are results of earlier work, collected in patent US20230338402A1, “TREATMENT REGIMEN FOR CANCER USING IMMUNOMODULATION” (BioXcel Therapeutics, Inc., priority 2020, published 2023).

Where a name gives a salt, the structure may show the parent alone.

Among the targets are CYP2C19 (Homo sapiens, UniProt P33261); CYP2D6 (Homo sapiens, UniProt P10635); CYP2C9 (Homo sapiens, UniProt P11712).
The target in data set [1] is T1, CYP1A2 (Homo sapiens, UniProt P05177).
T1 sequence (P05177 1-516): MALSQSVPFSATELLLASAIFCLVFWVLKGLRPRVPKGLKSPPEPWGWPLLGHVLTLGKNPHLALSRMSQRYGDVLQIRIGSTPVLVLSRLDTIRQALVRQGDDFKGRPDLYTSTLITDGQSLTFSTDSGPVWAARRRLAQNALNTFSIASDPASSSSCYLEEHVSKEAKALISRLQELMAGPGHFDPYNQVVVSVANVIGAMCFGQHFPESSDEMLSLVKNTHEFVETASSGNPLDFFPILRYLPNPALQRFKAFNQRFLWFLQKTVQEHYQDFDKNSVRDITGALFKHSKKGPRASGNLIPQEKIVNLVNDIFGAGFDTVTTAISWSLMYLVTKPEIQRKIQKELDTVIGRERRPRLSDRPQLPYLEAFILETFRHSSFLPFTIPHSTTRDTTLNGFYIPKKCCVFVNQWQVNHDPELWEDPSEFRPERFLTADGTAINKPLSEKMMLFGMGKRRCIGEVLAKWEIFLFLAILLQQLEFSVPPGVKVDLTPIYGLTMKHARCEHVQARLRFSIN
The following applies: human liver CYP isoenzymes, preclinical studies.

Data set [2] addresses CYP3A4 (Homo sapiens, UniProt P08684).
Data set [3] concerns CYP1A2.
For data set [4], the system named is CYP3A4.
Another data set addresses T2, CYP2C8 (Homo sapiens, UniProt P10632).
T2 sequence (P10632 1-490): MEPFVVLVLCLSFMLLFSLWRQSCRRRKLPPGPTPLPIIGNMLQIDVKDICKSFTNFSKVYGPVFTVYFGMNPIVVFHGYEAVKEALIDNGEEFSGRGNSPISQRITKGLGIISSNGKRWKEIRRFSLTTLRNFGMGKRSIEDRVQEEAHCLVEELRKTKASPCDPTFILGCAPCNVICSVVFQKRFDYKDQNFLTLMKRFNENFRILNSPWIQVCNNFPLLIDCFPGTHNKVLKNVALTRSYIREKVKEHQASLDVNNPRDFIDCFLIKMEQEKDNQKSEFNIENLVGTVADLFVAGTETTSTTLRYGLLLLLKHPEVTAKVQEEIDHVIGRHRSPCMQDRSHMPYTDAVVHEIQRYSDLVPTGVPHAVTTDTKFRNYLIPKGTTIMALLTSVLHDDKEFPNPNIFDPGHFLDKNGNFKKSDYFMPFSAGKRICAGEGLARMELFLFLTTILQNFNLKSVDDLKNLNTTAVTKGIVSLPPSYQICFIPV

The test system of another data set is melanoma. The conditions noted are these: melanoma patients.

Chain of CYP3A4 (Homo sapiens, UniProt P08684) (P08684 whole entry): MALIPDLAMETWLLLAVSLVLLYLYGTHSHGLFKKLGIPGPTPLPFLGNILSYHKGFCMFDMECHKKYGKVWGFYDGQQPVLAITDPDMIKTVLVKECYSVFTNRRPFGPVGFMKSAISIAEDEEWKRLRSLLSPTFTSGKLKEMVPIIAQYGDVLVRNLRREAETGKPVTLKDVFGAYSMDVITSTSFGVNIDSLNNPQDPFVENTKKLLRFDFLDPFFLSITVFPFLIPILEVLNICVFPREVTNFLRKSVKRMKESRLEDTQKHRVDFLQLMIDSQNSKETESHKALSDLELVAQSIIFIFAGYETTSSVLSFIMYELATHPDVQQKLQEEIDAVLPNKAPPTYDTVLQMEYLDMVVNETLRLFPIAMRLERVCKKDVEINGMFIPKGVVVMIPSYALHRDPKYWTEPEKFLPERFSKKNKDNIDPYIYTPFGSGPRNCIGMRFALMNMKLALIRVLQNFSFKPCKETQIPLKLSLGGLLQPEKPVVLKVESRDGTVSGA
Chain of CYP2C9 (P11712 whole entry): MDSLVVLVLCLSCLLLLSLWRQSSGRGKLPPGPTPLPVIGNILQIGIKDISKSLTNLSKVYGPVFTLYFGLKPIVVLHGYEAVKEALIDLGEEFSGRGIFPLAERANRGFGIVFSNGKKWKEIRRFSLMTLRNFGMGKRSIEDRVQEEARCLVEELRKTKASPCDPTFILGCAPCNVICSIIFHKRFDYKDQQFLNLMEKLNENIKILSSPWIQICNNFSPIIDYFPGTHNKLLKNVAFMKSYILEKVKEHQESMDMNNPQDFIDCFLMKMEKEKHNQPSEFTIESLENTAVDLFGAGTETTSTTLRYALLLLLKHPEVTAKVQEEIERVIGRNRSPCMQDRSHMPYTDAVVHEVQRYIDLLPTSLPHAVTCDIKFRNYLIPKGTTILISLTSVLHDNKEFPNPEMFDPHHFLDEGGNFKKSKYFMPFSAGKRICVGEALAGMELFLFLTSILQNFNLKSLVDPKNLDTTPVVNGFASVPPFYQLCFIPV
Chain of CYP2C19 (P33261 whole entry): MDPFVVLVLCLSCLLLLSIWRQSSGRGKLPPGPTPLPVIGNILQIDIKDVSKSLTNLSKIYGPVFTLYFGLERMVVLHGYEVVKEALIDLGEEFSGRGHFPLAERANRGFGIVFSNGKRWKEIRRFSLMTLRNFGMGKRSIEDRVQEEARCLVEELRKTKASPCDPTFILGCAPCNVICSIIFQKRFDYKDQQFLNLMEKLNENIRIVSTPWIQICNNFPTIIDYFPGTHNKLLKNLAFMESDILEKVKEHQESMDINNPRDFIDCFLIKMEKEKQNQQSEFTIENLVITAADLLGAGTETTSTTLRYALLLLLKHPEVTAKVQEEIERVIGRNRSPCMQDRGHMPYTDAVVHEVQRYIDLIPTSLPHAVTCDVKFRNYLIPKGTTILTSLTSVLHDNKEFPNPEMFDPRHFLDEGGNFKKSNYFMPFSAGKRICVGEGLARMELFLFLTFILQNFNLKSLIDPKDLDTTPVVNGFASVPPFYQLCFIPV
Chain of CYP2D6 (P10635 whole entry): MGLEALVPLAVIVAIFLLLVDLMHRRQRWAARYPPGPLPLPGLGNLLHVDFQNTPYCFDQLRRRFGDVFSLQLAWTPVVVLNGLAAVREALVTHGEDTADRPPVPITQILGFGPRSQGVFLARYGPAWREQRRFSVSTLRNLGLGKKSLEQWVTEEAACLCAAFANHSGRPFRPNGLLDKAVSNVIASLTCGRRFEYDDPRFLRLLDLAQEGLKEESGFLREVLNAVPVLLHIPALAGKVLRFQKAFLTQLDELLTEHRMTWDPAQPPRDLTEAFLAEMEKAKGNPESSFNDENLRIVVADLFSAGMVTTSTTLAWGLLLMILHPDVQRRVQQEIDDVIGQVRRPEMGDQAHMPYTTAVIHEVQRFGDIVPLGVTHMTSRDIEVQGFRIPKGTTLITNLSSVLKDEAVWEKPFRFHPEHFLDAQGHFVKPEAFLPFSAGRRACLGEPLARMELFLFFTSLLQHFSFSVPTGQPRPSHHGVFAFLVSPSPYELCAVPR

For `CC(C)[C@H](N)C(=O)N1CCC[C@H]1B(O)O` [Talabostat mesylate, [(2R)-1-[(2S)-2-amino-3-methylbutanoyl]pyrrolidin-2-yl]boronic acid], at CYP2C19, the “Potential to inhibit CYP2C19” value was “low potential”. For the same compound, on CYP1A2 [1], the “Potential to inhibit CYP1A2” value is reported as “low potential”. The “Potential to inhibit CYP3A4” value at CYP3A4 [2] is given as “low potential”. In the data set on CYP1A2 [3], the “Induction of CYP1A2” value was “did not induce”. Also, at CYP2D6, the “Potential to inhibit CYP2D6” value is “low potential”. Also, in the data set with CYP3A4 [4], the “Induction of CYP3A4” value is listed as “did not induce”. Also, at CYP2C9, the “Potential to inhibit CYP2C9” value is reported as “low potential”. Besides, the “Potential to inhibit CYP2C8” value on CYP2C8 is given as “low potential”.

Consider “Ipilimumab: CTLA-4 antagonist, immune checkpoint inhibitor antibody”, for which the Response rate in the data set on melanoma was 11%.

“Nivolumab: PD-1 antagonist, immune checkpoint inhibitor antibody”: the Response rate with melanoma is recorded as 32%.
